Measurements: patent publication US10450297B2, “Sulfonyl amide derivatives for the treatment of abnormal cell growth” (Pfizer, Inc., priority 2007, dated 2019)

Molecular target: FAK kinase (catalytic construct FAK(410-689)) (Homo sapiens (Human), UniProt Q05397)
Experiment: FAKcd kinase ELISA (inhibition of poly-glu-tyr phosphorylation by FAK(410-689))
Format: biochemical
Conditions: 50 μM final ATP

Sequence of FAK kinase (catalytic construct FAK(410-689)) (Q05397 410-689): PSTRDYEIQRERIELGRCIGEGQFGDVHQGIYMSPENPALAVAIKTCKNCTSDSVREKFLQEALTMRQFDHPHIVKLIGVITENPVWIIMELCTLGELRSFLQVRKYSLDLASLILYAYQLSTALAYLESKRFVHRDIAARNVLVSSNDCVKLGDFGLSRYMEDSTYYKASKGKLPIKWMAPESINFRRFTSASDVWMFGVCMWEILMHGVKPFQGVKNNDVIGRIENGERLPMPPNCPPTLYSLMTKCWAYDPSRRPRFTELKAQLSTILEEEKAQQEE

IC50 [nM]	SMILES
2.69	CN(c1ncccc1CNc1nc(Nc2ccc(C(=O)NC[C@@H]3C[C@H]3CO)cc2)ncc1C(F)(F)F)S(C)(=O)=O [Compound 273, N-{[(1R,2R)-2-(hydroxymethyl)cyclopropyl}methyl}-4-({4-[({2-[methyl(methylsulfonyl)amino]pyridin-3-yl}methyl)amino]-5-(trifluoromethyl)pyrimidin-2-yl}amino)benzamide]
4.66	CN(C)CCN(C)C(=O)c1ccc(Nc2ncc(C(F)(F)F)c(NCc3cccnc3N(C)S(C)(=O)=O)n2)cc1 [Compound 274, N-[2-(dimethylamino)ethyl]-N-methyl-4-({4-[({2-[methyl(methylsulfonyl)amino]pyridin-3-yl}methyl)amino]-5-(trifluoromethyl)pyrimidin-2-yl}amino)benzamide]
2.36	CN(c1ncccc1CNc1nc(Nc2ccc(C(=O)N3CCC[C@@H](O)C3)cc2)ncc1C(F)(F)F)S(C)(=O)=O [Compound 275, N-{3-[({2-[(4-{[(3R)-3-hydroxypiperidin-1-yl]carbonyl}phenyl)amino]-5-(trifluoromethyl)pyrimidin-4-yl}amino)methyl]pyridin-2-yl}-N-methylmethane-sulfonamide]
0.6	COCCNC(=O)c1ccc(Nc2ncc(C(F)(F)F)c(NCc3cccnc3N(C)S(C)(=O)=O)n2)cc1 [Compound 276, N-(2-methoxyethyl)-4-({4-[({2-[methyl(methylsulfonyl)amino]pyridin-3-yl}methyl)amino]-5-(trifluoromethyl)pyrimidin-2-yl}amino)benzamide]
2.36	COCCCN(C)C(=O)c1ccc(Nc2ncc(C(F)(F)F)c(NCc3cccnc3N(C)S(C)(=O)=O)n2)cc1 [Compound 277, N-(3-methoxypropyl)-N-methyl-4-({4-[({2-[methyl(methylsulfonyl)amino]pyridin-3-yl}methyl)arnino]-5-(trifluoromethyl)pyrimidin-2-yl}amino)benzamide]
6.64	C[C@@H]1COCCN1C(=O)c1ccc(Nc2ncc(C(F)(F)F)c(NCc3cccnc3N(C)S(C)(=O)=O)n2)cc1 [Compound 278, N-methyl-N-{3-(({2-[(4-{[(3R)-3-methylmorpholin-4-yl]carbonyl}phenyl)amino]-5-(trlfluoromethyl)pyrimidin-4-yl}amino)methyl]pyridin-2-yl]methanesulfonamide]
3.97	CN(C)C1CN(C(=O)c2ccc(Nc3ncc(C(F)(F)F)c(NCc4cccnc4N(C)S(C)(=O)=O)n3)cc2)C1 [Compound 279, N-{3-[({2-[(4-{[3-(dimethylamino)azelidin-1-yl]carbonyl}phenyl)amino]-5-(trifluoromethyl)pyrimidin-4-yl}amino)methyl]pyridin-2-yl}-N-methylmethane-sulfonamide]
0.6	COc1ccc(Nc2ncc(C(F)(F)F)c(NCc3cccnc3N(C)S(C)(=O)=O)n2)cc1 [Compound 280, N-{3-[({2-[(4-methoxyphenyl)amino]-5-(trifluoromethyl)pyrimidin-4-yl}amino)methyl]pyridin-2-yl}-N-methylmethane-sulfonamide]
0.6	COc1cccc(Nc2ncc(C(F)(F)F)c(NCc3cccnc3N(C)S(C)(=O)=O)n2)c1 [Compound 281, N-{3-[({2-[(3-methoxyphenyl)amino]-5-(trifluoromethyl)pyrimidin-4-yl}amino)methyl]pyridin-2-yl}-N-methylmethane-sulfonamide]
0.6	COc1ccc(Nc2ncc(C(F)(F)F)c(NCc3cccnc3N(C)S(C)(=O)=O)n2)cc1OC [Compound 282, N-{3-[({2-[(3,4-dimethoxyphenyl)amino]-5-(trifluoromethyl)pyrimidin-4-yl}amino)methyl]pyridin-2-yl}-N-methylmethane-sulfonamide]
0.6	CN(c1ncccc1CNc1nc(Nc2cccc(CO)c2)ncc1C(F)(F)F)S(C)(=O)=O [Compound 283, N-[3-({[2-{[3-(hydroxymethyl)phenyl]amino}-5-(trifluoromethyl)pyrimidin-4-yl]amino}methyl)pyridin-2-yl)-N-methylmethane-sulfonamide]
1.83	CN(c1ncccc1CNc1nc(Nc2ccc(OC(F)(F)F)cc2)ncc1C(F)(F)F)S(C)(=O)=O [Compound 284, N-methyl-N-[3-({[2-{[4-(trifluoromethoxy)phenyl]amino}-5-(trifluoromethyl)pyrimidin-4-yl]amino}rnethyl)pyridin-2-yl]methanesulfonamide]
1.27	CN(c1ncccc1CNc1nc(Nc2ccncc2)ncc1C(F)(F)F)S(C)(=O)=O [Compound 285, N-methyl-N-[3-({[2-(pyridin-4-ylamino)-5-(trifluoromethyl)pyrimidin-4-yl]amino}methyl)pyridin-2-yl]methanesulfonamide]
1.64	CN(c1ncccc1CNc1nc(Nc2cccc(C#N)c2)ncc1C(F)(F)F)S(C)(=O)=O [Compound 286, N-{3-[({2-[(3-cyanophenyl)amino]-5-(trifluoromethyl)pyrimidin-4-yl}amino)methyl]pyridin-2-yl}-N-methylmethanesulfonamide]
1.95	Cc1cccc(NS(C)(=O)=O)c1CNc1nc(Nc2ccc(-c3nnn[nH]3)cc2)ncc1C(F)(F)F [Compound 287, N-[3-methyl-2-({[2-{[4-(1H-tetrazol-5-yl)phenyl]amino}-5-(trifluoromethyl)pyrimidin-4-yl]amino}methyl)phenyl]methanesulfonamide]
18.2	Cc1cc(Nc2ncc(C(F)(F)F)c(NCc3cccnc3N(C)S(C)(=O)=O)n2)on1 [Compound 289, N-methyl-N-{3-[({2-[(3-methylisoxazol-5-yl)amino)-5-(trifluoromethyl)pyrimidin-4-yl}amino)methyl]pyridin-2-yl}methanesulfonamide]
< 0.595	CN(c1ncccc1CNc1nc(Nc2ccc(N3CCOCC3)cc2)ncc1C(F)(F)F)S(C)(=O)=O [Compound 291, N-methyl-N-{3-[({2-[(4-morpholin-4-ylphenyl)amino]-5-(trifluoromethyl)pyrimidin-4-yl}amino)methyl]pyridin-2-yl}methanesulfonamide]
23.3	CN(c1ncccc1CNc1nc(Nc2ccc(C#N)nc2)ncc1C(F)(F)F)S(C)(=O)=O [Compound 292, N-{3-[({2-[(6-cyanopyridin-3-yl)amino]-5-(trifluoromethyl)pyrimidin-4-yl}amino)methyl]pyridin-2-yl}-N-methylmethane-sulfonamide]
< 0.595	CN(c1ncccc1CNc1nc(Nc2ccc(N3CCOCC3)cn2)ncc1C(F)(F)F)S(C)(=O)=O [Compound 293, N-methyl-N-{3-[({2-[(5-morpholin-4-ylpyridin-2-yl)amino]-5-(trifluoromethyl)pyrimidin-4-yl}amino)methyl]pyridin-2-yl]methanesulfonamide]
< 0.595	Cc1ccc(CNc2nc(Nc3cccc(C(N)=O)c3)ncc2C(F)(F)F)c(N(C)S(C)(=O)=O)n1 [Compound 294, 3-({4-[({6-methyl-2-[methyl(methylsulfonyl)amino]pyridin-3-yl}methyl)amino]-5-(trifluoromethyl)pyrimidin-2-yl}amino)benzamide]
1.33	CN(c1cccnc1CNc1nc(Nc2cccc(C(N)=O)c2)ncc1C(F)(F)F)S(C)(=O)=O [Compound 295, 3-({4-[({3-[methyl(methylsulfonyl)amino]pyridin-2-yl}methyl)amino]-5-(trifluoromethyl)pyrimidin-2-yl}amino)benzamide]
3.89	Cc1ncc(CNc2nc(Nc3cccc(C(N)=O)c3)ncc2C(F)(F)F)c(N(C)S(C)(=O)=O)n1 [Compound 296, 3-({4-[({2-methyl-4-[methyl(methylsulfonyl)amino]pyrimidin-5-yl}methyl)amino]-5-(trifluoromethyl)pyrimidin-2-yl}amino)benzamide]
2.26	CN(c1nccnc1CNc1nc(Nc2cccc(C(N)=O)c2)ncc1C(F)(F)F)S(C)(=O)=O [Compound 297, 3-({4-[({3-[melhyl(methylsulfonyl)amino]pyrazin-2-yl}methyl)amino]-5-(trifluoromethyl)pyrimidin-2-yl}amino)benzamide]
32.8	CN(c1ncccc1CNc1nc(Nc2nccc(N)n2)ncc1C(F)(F)F)S(C)(=O)=O [Compound 298, N-{3-[({2-[(4-aminopyrimidin-2-yl)amino]-5-(trifluoromethyl)pyrimidin-4-yl}amino)methyl]pyridin-2-yl}-N-methylmethane-sulfonamide]
> 188	CN(c1ncccc1CNc1nc(Nc2ccnc(N)n2)ncc1C(F)(F)F)S(C)(=O)=O [Compound 299, N-{3-[({2-[(2-aminopyrimidin-4-yl)amino]-5-(trifluoromethyl)pyrimidin-4-yl}amino)methyl]pyridin-2-yl}-N-methylmethane-sulfonamide]
1	CN(c1ncccc1CNc1nc(Nc2ccc(CNS(=O)(=O)C(F)(F)F)cc2)ncc1C(F)(F)F)S(C)(=O)=O [Compound 302, 1,1,1-trifluoro-N-[4-({4-[({2-[methyl(methylsulfonyl)amino]pyridin-3-yl}methyl)amino]-5-(trifluoromethyl)pyrimidin-2-yl}amino)benzyl]methanesulfonamide]
0.727	CN(c1ncccc1CNc1nc(Nc2cccc(CNS(=O)(=O)C(F)(F)F)c2)ncc1C(F)(F)F)S(C)(=O)=O [Compound 303, 1,1,1-trifluoro-N-[3-({4-[({2-[methyl(methylsulfonyl)amino]pyridin-3-yl}methyl)amino]-5-(trifluoromethyl)pyrimidin-2-yl}amino)benzyl]methanesulfonamide]
0.777	COc1ccc(C(N)=O)cc1Nc1ncc(C(F)(F)F)c(NCc2cccnc2N(C)S(C)(=O)=O)n1 [Compound 304, 4-methoxy-3-({4-[({2-[methyl(methylsulfonyl)amino]pyridin-3-yl}methyl)amino]-5-(trifluoromethyl)pyrimidin-2-yl}amino)benzamide]
0.646	COc1ccc(C(N)=O)cc1Nc1ncc(C(F)(F)F)c(NCc2ccc(C)nc2N(C)S(C)(=O)=O)n1 [Compound 305, 4-methoxy-3-({4-[({6-methyl-2-[methyl(methylsulfonyl)-amino]pyridin-3-yl}methyl)amino]-5-(trifluoromethyl)pyrimidin-2-yl}amino)benzamide]
